The values below come from PMC4850449, “Bufexamac ameliorates LPS-induced acute lung injury in mice by targeting LTA4H” (Scientific Reports, 2016).

This experiment addresses T1, LTA4H (leukotriene A4 hydrolase) (Homo sapiens, UniProt P09960).
T1 sequence (P09960 2-611): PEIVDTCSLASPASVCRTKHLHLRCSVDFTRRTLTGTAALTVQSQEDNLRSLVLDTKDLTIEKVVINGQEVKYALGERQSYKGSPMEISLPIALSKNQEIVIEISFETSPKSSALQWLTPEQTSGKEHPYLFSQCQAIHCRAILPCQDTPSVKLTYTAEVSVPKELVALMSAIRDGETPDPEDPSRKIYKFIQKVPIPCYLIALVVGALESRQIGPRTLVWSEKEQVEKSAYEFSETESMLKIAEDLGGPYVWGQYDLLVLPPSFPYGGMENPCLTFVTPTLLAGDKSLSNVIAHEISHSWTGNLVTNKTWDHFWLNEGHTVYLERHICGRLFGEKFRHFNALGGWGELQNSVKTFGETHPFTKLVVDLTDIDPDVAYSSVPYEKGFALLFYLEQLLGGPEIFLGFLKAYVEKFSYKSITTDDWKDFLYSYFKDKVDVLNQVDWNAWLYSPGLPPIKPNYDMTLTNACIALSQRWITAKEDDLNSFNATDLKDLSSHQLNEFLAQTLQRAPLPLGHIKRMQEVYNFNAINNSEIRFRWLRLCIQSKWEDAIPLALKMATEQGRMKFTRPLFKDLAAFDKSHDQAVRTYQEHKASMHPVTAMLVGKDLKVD
The experiment can be described thus: X-ray co-crystal structure ([…] Å); purified enzyme inhibition (epoxide hydrolase IC50 […], aminopeptidase IC50 […]). In kind it is biochemical.

By IC50 is commonly meant the midpoint of a concentration-inhibition curve. Molecule `CCCCOc1ccc(CC(=O)NO)cc1` [Bufexamac] came in with an IC50 of 11.6 µM.
